How the values were obtained:
RAW264.7 [1] = test: Cytotoxicity against mouse RAW264.7 cells upto 50 uM measured after 48 hrs by MTT assay; type: toxicity, cell-based; settings: raw264.7, 48 h
RAW264.7 [2] = test: Anti-inflammatory activity in LPS-stimulated mouse RAW264.7 cells assessed as inhibition of NO production measured after 48 hrs by Griess assay; type: functional, cell-based; settings: RAW264.7, 48 h
RAW264.7 [3] = test: Cytotoxicity against mouse RAW264.7 cells upto 25 uM measured after 48 hrs by MTT assay; type: toxicity, cell-based; settings: raw264.7, 48 h
RAW264.7 [4] = test: Cytotoxicity against mouse RAW264.7 cells at 6.25 to 3.125 uM measured after 48 hrs by MTT assay; type: toxicity, cell-based; settings: raw264.7, 48 h, dose 6.25-3.125 µM

Row | SMILES | Activity (RAW264.7 [1]) | IC50 (RAW264.7 [2]) [µM] | Activity (RAW264.7 [3]) | Activity (RAW264.7 [4])
1 | Cc1ccc([C@@]2(C(=O)O)CC[C@H](C(=O)O)c3cc([C@@H](C)CCCO)c(C)cc32)cc1[C@@H](C)CCCO | Non-Toxic | > 50 |  | 
2 | CC(=O)OCCC[C@H](C)C1=C(C)C[C@H]2OC(=O)[C@@]3(C[C@]45C(=C(C)[C@H]3[C@@H]4OC(C)=O)C[C@H]3[C@H](C[C@@H]5C)OC(=O)[C@H]3C)[C@H]2[C@@H]1O |  | 5.73 | Non-Toxic | 
3 | C=C1C[C@H]2OC(=O)[C@@]3(C[C@]45C(=C(C)[C@H]3[C@@H]4OC(C)=O)C[C@@H]3C(=C)C(=O)O[C@H]3C[C@@H]5C)[C@H]2C=C1[C@@H](C)CCCOC(C)=O |  | > 50 |  | Non-Toxic
4 | C=C1C(=O)O[C@H]2C[C@H](C)[C@@]34C[C@](C(=O)O)(c5ccc(C)c([C@@H](C)CCCO)c5)[C@@H](C(C)=C3C[C@H]12)[C@@H]4OC(C)=O | Non-Toxic | 7.82 |  | 
5 | C=C1C(=O)O[C@H]2C[C@H](C)[C@@]34C[C@@]5(C(=O)O[C@@H]6C[C@@](C)(O)C([C@@H](C)CCCO)=C[C@@H]65)[C@@H](C(C)=C3C[C@H]12)[C@@H]4OC(C)=O | Non-Toxic | 10 |  | 
6 | CC(=O)O[C@H]1[C@@H]2C(C)=C3C[C@H]4[C@H](C[C@H](C)[C@@]31C[C@@]21C(=O)O[C@@H]2C[C@@](C)(O)C([C@@H](C)CCCO)=C[C@@H]21)OC(=O)[C@H]4C | Non-Toxic | > 50 |  | 
7 | C=C1C(=O)O[C@H]2C[C@H](C)[C@@]34C[C@@]5(C(=O)O[C@@H]6C[C@](C)(O)C([C@@H](C)CCCOC(C)=O)=C[C@@H]65)[C@@H](C(C)=C3C[C@H]12)[C@@H]4OC(C)=O |  | 4.07 | Non-Toxic | 
8 | CC(=O)OCCC[C@H](C)c1cc([C@@]2(C(=O)O)CC[C@H](C(=O)O)c3cc([C@@H](C)CCCO)c(C)cc32)ccc1C | Non-Toxic | > 50 |  | 
9 | CC(=O)OCCC[C@H](C)c1cc([C@@]2(C(=O)O)CC[C@H](C(=O)O)c3cc([C@@H](C)CCCOC(C)=O)c(C)cc32)ccc1C | Non-Toxic | > 50 |  | 
10 | CC(=O)O[C@H]1[C@@H]2C(C)=C3C[C@H]4[C@H](C[C@H](C)[C@@]31C[C@]2(C(=O)O)c1ccc(C)c([C@@H](C)CCCO)c1)OC(=O)[C@H]4C | Non-Toxic | > 50 |  | 
11 | C[C@]12CCC(=O)C=C1CC[C@@H]1[C@@H]2[C@@H](O)C[C@@]2(C)[C@H]1CC[C@]2(O)C(=O)COC(=O)CCC(=O)O [HYDROCORTISONE SODIUM SUCCINATE] |  | 44 |  | 
